Measured values from patent US7482149B2 (priority 2003, dated 2009).
Where two headings read alike, the source gives them in different places.

Tests used:
SARS-CoV [1] = assay type: cell-based
[2] = test system: Herpes simplex virus and varicella-zoster virus; settings: cited from earlier work
Cytomegalovirus = settings: cited from earlier work
Herpes simplex mutants = settings: cited from earlier work
HIV = settings: cited from earlier work
Influenza virus = settings: cited from earlier work
[3] = test system: HIV and other retroviruses; settings: cited from earlier work
Herpes and poxviruses = settings: cited from earlier work
SARS-CoV [4] = settings: ribavirin concentrations that inhibit other sensitive viruses; preliminary; cited from earlier work
[5] = complete (100%) inhibition of CPE up to highest concentration tested, 10,000 PFU/well, MOI 0.5, Vero E6

For `Nc1nc2c(ncn2COCCO)c(=O)[nH]1` [Acyclovir], the “Inhibition of Cytopathic Effect” value (SARS-CoV [1]) is given as “No” and the IC50 [2] is given as 0.01 to 13.5 mg/L.

For `NC12CC3CC(CC(C3)C1)C2` [Amantadine], the “Inhibition of Cytopathic Effect” value (SARS-CoV [1]) was “No”.

For `Nc1nc(O)c2ncn(COC(CO)CO)c2n1` [Cymevene, Ganciclovir], the “Inhibition of Cytopathic Effect” value (SARS-CoV [1]) is given as “No” and the IC50 (Cytomegalovirus) is given as 0.02 to 3.48 mg/L.

In the case of `O=C(O)P(=O)(O)O` [Foscarnet], the “Inhibition of Cytopathic Effect” value (SARS-CoV [1]) is given as “No”, the IC50 (Cytomegalovirus; read-out: IC50) is given as 50 to 800 µM and the IC50 (Herpes simplex mutants) is given as 5 to 443 µM.

In the case of `CC(C)(C)NC(=O)[C@@H]1CN(Cc2cccnc2)CCN1C[C@@H](O)C[C@@H](Cc1ccccc1)C(=O)N[C@H]1c2ccccc2C[C@H]1O` [Indinavir], the “Inhibition of Cytopathic Effect” value (SARS-CoV [1]; [5]) is listed as “No” and the IC50 (HIV; read-out: IC50) is listed as 0.025 to 0.1 µM.

For `Cc1c(O)cccc1C(=O)N[C@@H](CSc1ccccc1)[C@H](O)CN1C[C@H]2CCCC[C@H]2C[C@H]1C(=O)NC(C)(C)C` [Nelfinavir], the “Inhibition of Cytopathic Effect” value (SARS-CoV [1]) is given as “No” and the EC95 (HIV) is given as 0.007 to 0.196 µM.

For `CCOC(=O)C1=C[C@@H](OC(CC)CC)[C@H](NC(C)=O)[C@@H](N)C1` [Oseltamivir], the “Inhibition of Cytopathic Effect” value (SARS-CoV [1]) was “No”.

For `NC(=O)c1ncn([C@@H]2O[C@H](CO)[C@@H](O)[C@H]2O)n1` [Ribavirin], the “concentrations showing inhibitory activity” value (SARS-CoV [1]; all three viral loads) was 0.5 to 5 mg/mL, the “Inhibition of Cytopathic Effect” value (SARS-CoV [1]; [5]) was “Yes” and the “Complete inhibition of cytopathic effect (CIA100)” value (“Complete inhibition” below) (SARS-CoV [1]; virus load 100 PFU/well) was 1,000 μg/mL. The “Complete inhibition” value (SARS-CoV [1]; virus load 1,000 PFU/well) was 10,000 μg/mL, the “Complete inhibition” value (SARS-CoV [1]; virus load 10,000 PFU/well) was 5,000 μg/mL and the “Complete inhibition” value (SARS-CoV [1]; virus load 10,000 PFU/well, listed as Ribavarin) was 10,000 μg/mL. The cytotoxicity (Vero E6 cells) was “slight cytotoxicity”, the “concentrations at which cytotoxic effects were observed” value (Vero E6 cells; African green monkey) was 200 to 1000 µg/mL and the IC50 (Influenza virus) was 1 to 25 mg/L. The IC50 [3] was 25 to 100 mg/L, the MIC (Herpes and poxviruses) was 3.2 to 50 mg/L and the “inhibition of replication or cell-to-cell spread of the SARS-CoV” value (SARS-CoV [4]) was “do not inhibit”.

For `CC(C)(C)NC(=O)[C@@H]1C[C@@H]2CCCC[C@@H]2CN1C[C@@H](O)[C@H](Cc1ccccc1)NC(=O)[C@H](CC(N)=O)NC(=O)c1ccc2ccccc2n1` [Saquinavir], the “Inhibition of Cytopathic Effect” value (SARS-CoV [1]) is listed as “No” and the IC50 (HIV; read-out: IC50) is listed as 0.001 to 0.03 µM.

In the case of `CC(=O)N[C@H]1[C@H]([C@H](O)[C@H](O)CO)OC(C(=O)O)=C[C@@H]1N=C(N)N` [Zanamivir], the “Inhibition of Cytopathic Effect” value (SARS-CoV [1]) is given as “No” and the IC50 (Influenza virus; read-out: IC50) is given as 0.005 to 16 µM.

For `Cc1cn([C@H]2C[C@H](N=[N+]=[N-])[C@@H](CO)O2)c(=O)[nH]c1=O` [Zidovudine], the “Inhibition of Cytopathic Effect” value (SARS-CoV [1]; [5]) is listed as “No” and the IC50 (HIV) is listed as 0.003 to 0.013 mg/L.

For Interferon α2b, the “Inhibition of Cytopathic Effect” value (SARS-CoV [1]) was “No”.
